Results on 14 molecules are retold here after publication PMC6274563, “Synthesis and In Vitro Anti Leishmania amazonensis Biological Screening of Morita-Baylis-Hillman Adducts Prepared from Eugenol, Thymol and Carvacrol” (Molecules, 2016).

Like-named read-outs stand apart in the source and are kept apart here. Some results are limits rather than exact numbers.

Data set [1] concerns promastigotes of Leishmania amazonensis (IFLA/BR/67/PH8). Put plainly: Antileishmanial activity against promastigotes (MTT viability). The class given is cell-based. As to the method: The promastigote viabilities were determined by the ability of living cells to reduce the yellow MTT (3-(4,5-dimethylthiazol-2-yl)-2,5-diphenyltetrazolium bromide, a tetrazole) to purple formazan. Promastigote forms of Leishmania amazonensis (IFLA/BR/67/PH8) in the log phase of growth were incubated at 25 °C in 96-well cellular culture plates (TPP, Trasadingen, Switzerland) with 1 × 10^5 cells/well in 100 μL Schneider’s Drosophila medium supplemented with 20% of FBS in the presence or absence of different concentrations of compounds 4–15. The growth of promastigotes forms was evaluated simultaneously in the presence of Glucantime®, as reference drug. After 72 h of incubation, […] of a 5 mg·mL^−1 MTT solution was added. After 4 h of incubation at 25 °C, the formed product formazan was dissolved in […] of sodium dodecyl sulfate (SDS) at 10% for 24 h, and the absorbance was measured by spectrophotometry at a 545 nm wavelength. The percentage viability was calculated from the ratio of OD readings in the wells with compounds versus the wells without compounds × 100. The concentration that inhibited 50% of growth (IC50) was determined by regression analysis using the SPSS 8.0 software for Windows (IBM, New York, NY, USA). All experiments were performed at least three times, and each experiment was performed in triplicate. […]

For a further data set, the system named is human red blood cells. The data set can be described thus: Haemolytic assay. The following applies: for SIrb (selectivity index on red blood cell) = HC50/IC50: HC50 on red blood cells / IC50 on L. amazonensis promastigotes. The class given is cell-based.
Setting [2] is: Leishmania amazonensis, promastigotes of L. amazonensis, 72 h incubation, MTT, average of three independent experiments ± standard error of the mean, read-out: IC50.
The mark [3] stands for this setting: haemolysis of human red blood cells.

Turning to `C=C(C(=O)Oc1cc(C)ccc1C(C)C)C(O)c1ccc([N+](=O)[O-])cc1` (stereo not shown) [Compound 10, 2-Isopropyl-5-methylphenyl 2-(hydroxy(4-nitrophenyl)methyl)acrylate], the IC50 (usually the point on the concentration scale where inhibition reaches its midpoint) in data set [1] (setting [2]) was 11.4 ± 0.57 µM.
Turning to `C=C(C(=O)Oc1cc(C(C)C)ccc1C)C(O)c1ccccc1[N+](=O)[O-]` (stereo not shown) [Compound 15, 5-Isopropyl-2-methylphenyl 2-(hydroxy(2-nitrophenyl)methyl)acrylate], in data set [1] (setting [2]), the IC50 was 13.6 ± 0.68 µM.
As for `Cc1ccc(C(C)C)c(O)c1` [Compound 5, thymol], in data set [1] (setting [2]), the IC50 was found to be 115 ± 5.77 µM.
On to `C=C(C(=O)Oc1cc(C(C)C)ccc1C)C(O)c1cccc([N+](=O)[O-])c1` (stereo not shown) [Compound 14, 5-Isopropyl-2-methylphenyl 2-(hydroxy(3-nitrophenyl)methyl)acrylate], for which the IC50 in data set [1] (setting [2]) was 22.3 ± 1.12 µM.
As to `Cc1ccc(C(C)C)cc1O` [Compound 6, carvacrol], the IC50 in data set [1] (Leishmania amazonensis, 72 h) is 138 ± 6.91 µM.
Regarding `C=CCc1ccc(OC(=O)C(=C)C(O)c2cccc([N+](=O)[O-])c2)c(OC)c1` (stereo not shown) [Compound 8, 4-Allyl-2-methoxyphenyl-2-(hydroxy(3-nitrophenyl)methyl)acrylate], in the data set with human red blood cells, the “SIrb (selectivity index on red blood cell) = HC50/IC50” value is more than 38.13. Besides, the HC50 (as a rule, the concentration that lyses half of the red blood cells) with human red blood cells (setting [3]) is more than 400 µM. Also, the IC50 in data set [1] (setting [2]) amounted to 10.5 ± 0.52 µM.
As for `C=C(C(=O)Oc1cc(C)ccc1C(C)C)C(O)c1ccccc1[N+](=O)[O-]` (stereo not shown) [Compound 12, 2-Isopropyl-5-methylphenyl 2-(hydroxy(2-nitrophenyl)methyl)acrylate], the IC50 in data set [1] (setting [2]) turned out to be 5.91 ± 0.3 µM.
The same measure, in the same setting: as for `C=C(C(=O)Oc1cc(C(C)C)ccc1C)C(O)c1ccc([N+](=O)[O-])cc1` (stereo not shown) [Compound 13, 5-Isopropyl-2-methylphenyl 2-(hydroxy(4-nitrophenyl)methyl)acrylate], the figure is 18.1 ± 0.9 µM.
Regarding `C=CCc1ccc(OC(=O)C(=C)C(O)c2ccccc2[N+](=O)[O-])c(OC)c1` (stereo not shown) [Compound 9, 4-Allyl-2-methoxyphenyl 2-(hydroxy(2-nitrophenyl)methyl)acrylate], in the data set on human red blood cells, the “SIrb (selectivity index on red blood cell) = HC50/IC50” value is reported as more than 84.92. In the data set on human red blood cells (setting [3]), this molecule gave an HC50 of more than 400 µM. Further, the IC50 in data set [1] (setting [2]) was 4.71 ± 0.24 µM.
`C[C@@H]1[C@H](O)[C@@H](C)/C=C/C=C/C=C/C=C/C=C/C=C/C=C/[C@H](O[C@@H]2O[C@H](C)[C@@H](O)[C@H](N)[C@@H]2O)C[C@@H]2O[C@](O)(C[C@@H](O)C[C@@H](O)[C@H](O)CC[C@@H](O)C[C@@H](O)CC(=O)O[C@H]1C)C[C@H](O)[C@H]2C(=O)O` [AmphotericinB, amphotericin B]: in the data set on human red blood cells, the “SIrb (selectivity index on red blood cell) = HC50/IC50” value was 22.34. The molecule further yielded an HC50 in the data set on human red blood cells (setting [3]) of 11.61 µM. Further, in data set [1] (setting [2]), the IC50 stood at 0.52 ± 0.03 µM.
For `C=C(C(=O)Oc1cc(C)ccc1C(C)C)C(O)c1cccc([N+](=O)[O-])c1` (stereo not shown) [Compound 11, 2-Isopropyl-5-methylphenyl 2-(hydroxy(3-nitrophenyl)methyl)acrylate], in data set [1] (setting [2]), the IC50 was determined as 10.6 ± 0.53 µM.
In the case of `C=CCc1ccc(OC(=O)C(=C)C(O)c2ccc([N+](=O)[O-])cc2)c(OC)c1` (stereo not shown) [Compound 7, 4-Allyl-2-methoxyphenyl 2-(hydroxy(4-nitrophenyl)methyl)acrylate], in the data set on human red blood cells, the “SIrb (selectivity index on red blood cell) = HC50/IC50” value was more than 45.71. The molecule further had an HC50 in the data set with human red blood cells (setting [3]) of more than 400 µM. For the same molecule, the 50% inhibitory concentration (IC50) in data set [1] (setting [2]) is 8.75 ± 0.44 µM.
Glucantime^® had an HC50 in the data set with human red blood cells of 1175.02 µM. Also, the IC50 in data set [1] (promastigotes of L. amazonensis, 72 h incubation, MTT, average of three independent experiments ± standard error of the mean, read-out: IC50) was determined as 1630 ± 437 µM.
Take `C=CCc1ccc(O)c(OC)c1` [Compound 4, eugenol]: the “SIrb (selectivity index on red blood cell) = HC50/IC50” value in the data set on human red blood cells is listed as more than 5.18. Moreover, the HC50 in the data set on human red blood cells (setting [3]) is more than 400 µM. The molecule also came in with an IC50 in data set [1] (Leishmania amazonensis, 72 h) of 77.2 ± 1.77 µM.
